In patent US20250312365A1, “METHODS FOR INHIBITION OF SQUAMOUS CARCINOMA CELLS USING CERAMIDE MODULATORS” (The Trustees of Indiana University, priority 2024, published 2025):
“Also recorded” adds a separate entry of the source.

Experiments:
[1] = test system: ceramide and dihydroceramide in OECM1 cells; details: Yamada et al. 2023; cited from earlier work
ASAH1 [2] = details: Yamada et al. 2023; cited from earlier work
[3] = test system: human gingival squamous carcinoma cells (OECM1); details: Yamada et al. 2023; cited from earlier work
[4] = test system: tongue squamous carcinoma cells (SCC9); experiment: Cell viability/proliferation assay (WST-1) in SCC9 cells; type: cell-based, human
Description: (§1) In specific examples, colorimetric assays can be used to assess cellular viability and proliferation of cell cultures, such as MTT, WST-1, and resazurin assays. See, e.g., Präbst et al., Methods Mol Biol. 2017:1601:1-17.
(§2) Various cell lines were exposed to PGDHC, including human gingival squamous carcinoma cells (OECM1), tongue squamous carcinoma cells (SCC4, SCC9), and healthy human gingival epithelial control cells (OBA9) in vitro.
(§3) LCL521 is a dose-dependent acid ceramidase inhibitor. Comparison of the concentration-dependent effects of an acid ceramidase inhibitor, LCL521 (MedChemExpress®), and the bacterial-isolated a15:0-15:0PE phospholipid on the viability of healthy human epithelial, OBA9, and oral squamous cancer cell lines, OECM1 and SCC9, in vitro was evaluated. […] (FIG. 15A). […] (FIG. 15B).

[5] = test system: human gingival squamous carcinoma cells (OECM1); experiment: Cell viability/proliferation assay (WST-1) in OECM1 cells; type: cell-based; details: for OECM1 viability / proliferation: 0.1, 1, 2 and 5 μg/ml, normalized to control
Description: as §1, §2
(§4) To elucidate the effects of C16:0 and dh-C16:0 on oral squamous cell carcinoma, the ability of exogenous C16:0 and dh-C16:0 to modulate proliferation and ceramidase expression in OECM1 cells was determined. […] In contrast, no effect of C16:0 on ASAH1 and ACER2 mRNA expressions.
as §3

[6] = test system: healthy human gingival epithelial control cells (OBA9); experiment: Cell viability/proliferation assay (WST-1) in healthy OBA9 cells; type: cell-based
Description: as §1, §2, §3

ACER3 = ACER3 mRNA expression in OECM1 cells; type: cell-based, human; details: 1 μg/ml, compared to sham control
Description: (§5) Exemplary ceramidase genes, the expression of which can be measured to determine upregulation, include but are not limited to ASAH1, ACER2, and ACER3. A determination of ceramidase gene expression can be made according to methods available to one of skill in the art. For example, Yamada et al., J Cell Mol Med. 2023 May;27(9):1290-1295 and Kyriakou et al., Int. J. Mol. Sci. 2020, 21(5):1607 describes measuring the mRNA levels of ceramidases by RNA extraction and RT-PCR.
To test this hypothesis, it was first determined whether artificially elevated intracellular concentration of ceramide species affect the expression of acid/ASAH1, neutral/ASAH2, and alkaline1-3/ACER1-3 ceramidases in oral squamous cell carcinoma cells using C6-ceramide. Applicant previously reported that C6-ceramide serves as a positive control for PGDHC-mediated inflammation (Kanzaki et al., Biochim Biophys Acta Mol Cell Biol Lipids. 2017 May;1862(5):452-462) and promotes the intracellular accumulation of ceramide in cancer cells. See, e.g., Zhang et al., Front Plant Sci. 2020 Feb. 26:11:145, Zhai et al., Biochem Biophys Res Commun. 2015 December;468(1-2):274-80, Wilhelm et al., Cancers (Basel). 2021 Jan. […]
To elucidate the effects of C16:0 and dh-C16:0 on oral squamous cell carcinoma, the ability of exogenous C16:0 and dh-C16:0 to modulate proliferation and ceramidase expression in OECM1 cells was determined. […]

ASAH1 [7] = experiment: ASAH1 (acid ceramidase) mRNA expression in OECM1 cells; type: cell-based, human; details: for expression of ASAH1 in OECM1 cells: 1 μg/ml, compared to sham control
Description: as §5
(§6) To test this hypothesis, it was first determined whether artificially elevated intracellular concentration of ceramide species affect the expression of acid/ASAH1, neutral/ASAH2, and alkaline1-3/ACER1-3 ceramidases in oral squamous cell carcinoma cells using C6-ceramide. Applicant previously reported that C6-ceramide serves as a positive control for PGDHC-mediated inflammation (Kanzaki et al., Biochim Biophys Acta Mol Cell Biol Lipids. 2017 May;1862(5):452-462) and promotes the intracellular accumulation of ceramide in cancer cells. See, e.g., Zhang et al., Front Plant Sci. 2020 Feb. 26:11:145, Zhai et al., Biochem Biophys Res Commun. 2015 December;468(1-2):274-80, Wilhelm et al., Cancers (Basel). 2021 Jan. 13;13(2):270, and Chapman et al., Biochem Pharmacol. 2010 Aug. 1;80(3):308-15.
(§7) Next, the effect of PGDHC on ceramidase gene expression was determined. OECM1 and SCC4 cells were exposed to 0.1 or 1 μg/ml of PGDHC. The mRNA levels of ceramidases were then measured following PGDHC exposure. PGDHC inhibited the expression of ASAH1 and ACER2 mRNAs in OECM1 (FIG. 8). […] See, e.g., Vijayan et al., J Adv Res. 2023 Dec. 21:S2090-1232(23)00403-4, Doan et al., Oncotarget. 2017 Nov. 7;8(68):112662-112674., Lai et al., Sci Rep. 2021 May 27;11(1):11221, Liu et al., Cancer Sci. 2020 July;111(7):2259-2274., and Liu et al., Front Genet. 2023 Mar. 1:14:1148437.
as §4
(§8) We evaluated the effect of a15:0-i15:0 phosphoethanolamine phospholipid (FIG. 1D), isolated from the gut bacteria Akkermansia muciniphila on OSCC cells.

ACER2 = ACER2 mRNA expression in OECM1 cells; type: cell-based, human; details: 1 μg/ml, compared to sham control
Description: as §5, §6, §7, §4

ASAH1 [8] = experiment: ASAH1 mRNA expression in SCC9 cells; type: cell-based, human; details: different concentrations of a15:0-i15:0PE
Description: as §8

SCC9 cells = experiment: Untargeted metabolomic pathway analysis (LC/MS) in SCC9 cells; type: cell-based, human; details: 1 μg/ml for 6 h
Description: The plots in FIGS. 16A and 16B display the enriched pathways identified in the analysis, with their corresponding significance levels represented on the x-axis. The significance threshold (p<0.05) is denoted by the dashed line. […] Additionally, the color of the dots represents the enrichment, which indicates the extent to which the metabolites in the pathway were clustered amongst the compounds with the most positive fold-changes (positive enrichments), the most negative fold-changes (negative enrichments), or uniformly distributed across high and low fold-change compounds (enrichment values near 0.0). […] Polar and lipid metabolites were analyzed with hydrophilic interaction chromatography (HILIC/MS) and liquid chromatography (LC/MS), respectively. Mass spectrometry analysis was completed with a mass range of 67-1500 Da with 1 scan/sec and a mass resolution of 120,000 in both positive and negative ionization mode. The MS/MS mass-spectrometry data were acquired in a data-dependent iterative fashion with a 1.3 m/z isolation window. Based upon this metabolomic analysis, phosphoglycerol dihydroceramide (PGDHC) isolated from Porphyromonas gingivalis inhibits metabolomic pathways essential for cell survival in oral squamous cell carcinoma cells (OSCC). […]
SCC9 were exposed to a15:0-i15:0PE (1 μg/ml) for 6 h in vitro. […] The significance threshold (p<0.05) is denoted by the grey dashed line. […] Additionally, the color of the dots represents the enrichment, which indicates the extent to which the metabolites in the pathway were clustered amongst the compounds with the most positive fold-changes (positive enrichments), the most negative fold-changes (negative enrichments), or uniformly distributed across high and low fold-change compounds (enrichment values near 0.0).

acid ceramidase = experiment: Acid ceramidase level by confocal microscopy in SCC9 cells; type: cell-based, human
Description: as §8

[9] = at concentrations lower than 1 μg/mL

phosphoethanolamine dihydroceramide [PEDHC]
accumulation of antiproliferative ceramides in OECM1 cells [1]: elevated accumulation | ASAH1 (acid ceramidase) expression in OECM1 cells (ASAH1 [2]): inhibition; also recorded: downregulation | proliferation of OECM1 cells [3]: inhibited the proliferation

CCCCCCCCCCCCCC(=O)N[C@H](COC(=O)CN(C)C)[C@H](OC(=O)CN(C)C)c1ccc([N+](=O)[O-])cc1 [LCL521, reference compound]
inhibition of viability of SCC9 ([4]; 10 μM): 20% | inhibition of viability of OECM1 ([5]; 10 μM): 20% | inhibition of viability of OBA9 ([6]; 10 μM): over 50%

CCCCCCCCCCCCCCCC(=O)N[C@@H](CO)[C@H](O)CCCCCCCCCCCCCCC [dh-C16:0, Dihydroceramide C16:0]
expression of ACER3 in OECM1 cells (ACER3): dramatically inhibits | expression of ASAH1 in OECM1 cells (ASAH1 [7]): dramatically inhibits | expression of ACER2 in OECM1 cells (ACER2): dramatically inhibits | OECM1 viability / proliferation [5]: significantly inhibited OECM1 cells proliferation in a concentration-dependent manner

CCCCCCCCCCCCC/C=C/[C@@H](O)[C@H](CO)NC(=O)CCCCCCCCCCCCCCC [C16:0, C16:0 ceramide]
expression of ASAH1 in OECM1 cells (ASAH1 [7]): no effect | expression of ACER2 in OECM1 cells (ACER2): no effect

CCCCCCCCCCCCC/C=C/[C@@H](O)[C@H](CO)NC(=O)CCCCC [C6-ceramide]
expression of ACER3 in OECM1 cells (ACER3): inhibited expression | expression of ASAH1 in OECM1 cells (ASAH1 [7]): inhibited expression | expression of ACER2 in OECM1 cells (ACER2): inhibited expression | OECM1 viability / proliferation [5]: inhibited OECM1 viability in a concentration-dependent manner

CC[C@H](C)CCCCCCCCCCC(=O)OC[C@H](COP(=O)(O)OCCN)OC(=O)CCCCCCCCCCCC(C)C [a15:0-15:0PE, 1-(12S-methylmyristoyl)-2-(13-methylmyristoyl)-sn-glycero-3-phosphoethanolamine]
expression patterns of ASAH1 mRNA in SCC9 (ASAH1 [8]): dose-dependent decrease in expression | amino fatty acid metabolism in SCC9 cells (SCC9 cells): inhibits | arginine and proline metabolism in SCC9 cells (SCC9 cells): inhibits | vitamin B6 metabolism in SCC9 cells (SCC9 cells): inhibits | amino fatty acid metabolism in SCC9 cells (SCC9 cells; listed as a15:0-i15:0PE): diminished accumulation | arginine and proline metabolism in SCC9 cells (SCC9 cells; listed as a15:0-i15:0PE): diminished accumulation | vitamin B6 metabolism in SCC9 cells (SCC9 cells; listed as a15:0-i15:0PE): diminished accumulation | viability of SCC9 cells [4, 9]: significantly inhibited | expression patterns of ASAH1 mRNA in OECM1 (ASAH1 [7]; different concentrations of a15:0-i15:0PE): dose-dependent decrease in expression | viability of OECM1 cells [5, 9]: significantly inhibited | levels of acid ceramidase in SCC9 cells (confocal, corrected total cell fluorescence) (acid ceramidase): decreased expression | healthy OBA9 cell viability ([6]; concentrations of 0.1, 1.0 and 2.0 μM (FIG. 15B)): No significant effect
